In brackets after ≈: the same amount, converted by molar mass.
Conditions: buffer; pH 7.4; 200.0 µM

SMILES | solubility kinetic [µg/mL]
O=[N+]([O-])c1ccc(C(O)CN2CCN(c3ccccc3)CC2)cc1 (stereo not given) | 3 (≈ 9.16 µM)
CCn1c(=O)c2c(nc(SCC(=O)NC3CCCC3)n2C)n(C)c1=O | > 54.8
c1ccc(CCNc2cnccn2)cc1 | > 29.9
CC(CCc1ccccc1)NC(=O)CN1CCc2ccccc2C1 (stereo not given) | 47.3 (≈ 147 µM)
Cc1cc(C(=O)Nc2ccccc2C(=O)O)c(C)o1 | > 38.9
O=C(COC(=O)C1CCC1)NCc1ccc(F)cc1 | > 39.8
CCOC(=O)c1cc(S(=O)(=O)N2CCC(C)CC2)cn1C | 5.2 (≈ 16.5 µM)
COc1ccc(OC)c(NC(=O)CCc2c[nH]c3ccccc23)c1 | 10.9 (≈ 33.6 µM)
CC(C)c1ccc(NC(=O)C2CC(=O)N(C3CCCC3)C2)cc1 (stereo not given) | 36.1 (≈ 115 µM)
Cc1ccc(/C(O)=C2\C(=O)C(=O)N(C)C2c2cccc([N+](=O)[O-])c2)cc1 (stereo not given) | 51.5 (≈ 146 µM)
CCc1ccc(NC(=O)C2(C)Cc3ccccc3C(=O)O2)cc1 (stereo not given) | > 46.4
Cc1cccc(-n2c(=O)c3c(C)c(C)sc3n(CC(N)=O)c2=O)c1 | > 51.5
CSc1ccc(S(=O)(=O)N2c3ccccc3CC2C)cc1 (stereo not given) | 1.7 (≈ 5.32 µM)
Cc1ccc(S(=O)(=O)N2CCN(c3ncccn3)CC2)c(C)c1 | 1.8 (≈ 5.41 µM)
CC(CC(=O)Nc1nccs1)c1ccccc1 (stereo not given) | 32.5 (≈ 132 µM)
O=C(c1cccc(S(=O)(=O)N2CCCc3ccccc32)c1)N1CCN(c2ccccc2)CC1 | 3.6 (≈ 7.8 µM)
Fc1ccc(C2CCCN2Cc2nc(CC3CC3)no2)cc1 (stereo not given) | 28.6 (≈ 94.9 µM)
COc1ccc(S(=O)(=O)N2CCOCC2)cc1NC(=O)Cc1ccsc1 | 7.6 (≈ 19.2 µM)
O=C(NC1CCCc2ccccc21)c1ccc2c(c1)OCO2 (stereo not given) | 11.6 (≈ 39.3 µM)
CC1(c2ccc(Cl)cc2)NC(=O)N(CN2CCOCC2)C1=O (stereo not given) | > 48.6

SMILES | solubility kinetic [µg/mL]
O=C(NC1CC1)c1sc2ccccc2c1Cl | 1.6 (≈ 6.36 µM)
Cc1cc(OC(=O)c2ccc(OC(C)C)cc2)c([N+](=O)[O-])c(=O)[nH]1 | > 49.8
c1ccc2nc3c(nc2c1)CCCC3 | > 27.6
COCc1nc2oc3ccccc3c(=O)c2cc1C(=O)OC | 19.7 (≈ 65.8 µM)
Cc1ccc(-n2c(C)nc3cc(Cl)ccc3c2=O)nc1 | > 42.9
Cc1ccc(OCC(=O)O/N=C(\N)c2ccncc2)c(C)c1 | 30.9 (≈ 103 µM)
COCCNC(=S)N1CCC(C(=O)c2ccc(C)cc2)CC1 | 43.2 (≈ 135 µM)
CCCCOc1ccc(C(=O)OCC(=O)N2CCOCC2)cc1 | 29.9 (≈ 93 µM)
O=S(=O)(NCc1ccc2c(c1)OCO2)c1cccc(F)c1 | > 46.4
Nc1ccccc1Nc1nc2ccccc2[nH]1 | > 33.6
CC(=O)C1=C(O)C(=O)N(Cc2ccccc2)C1c1ccc(Cl)cc1 (stereo not given) | > 51.3
Cc1ccc2[nH]c3c(c2c1)CCCC3NCCO.Cl (stereo not given) | > 42.1
CN(c1ccc(O)cc1)c1nc(-c2cccnc2)cs1 | 3.2 (≈ 11.3 µM)
CCN(CC)S(=O)(=O)c1ccc(N2CCc3ccccc3C2)nc1 | 25.8 (≈ 74.7 µM)
N#Cc1ncn(-c2ccc(Oc3ccccc3)cc2)c1N | 4 (≈ 14.5 µM)
CC(C)NC(=S)N(CCc1ccncc1)C(C)C | 27.4 (≈ 103 µM)
Cc1ccc(CSCc2ccc(C(=O)NCC3CCCO3)o2)cc1 (stereo not given) | 39.4 (≈ 114 µM)
CCOC(=O)C1=C(C)NC(C)=C(C(=O)OC)C1c1ccco1 (stereo not given) | 34.1 (≈ 112 µM)
O=S(=O)(NC1C2CC3CC(C2)CC1C3)c1ccc(F)cc1 (stereo not given) | 23 (≈ 74.3 µM)
CC(CC12CC3CC(CC(C3)C1)C2)NCc1ccccc1O.Cl (stereo not given) | 38.5

SMILES | solubility kinetic [µg/mL]
CC1(C)CC(NC(=O)c2cccc(Cl)c2)CC(C)(C)N1 | > 44.2
Cc1ccccc1OCC(=O)O/N=C(\N)c1ccncc1 | 28.7 (≈ 101 µM)
CCN1CSC(=S)N(Cc2ccc(OC)cc2)C1 | 38.6 (≈ 137 µM)
O=C(COC(=O)c1ccccn1)NCCc1ccc(Cl)cc1 | > 47.8
O=C(O)c1ccccc1-c1ncc(-c2ccccc2)o1 | > 39.8
Cc1nn(CC(=O)NC2CCCC2)c(C)c1[N+](=O)[O-] | > 39.9
COc1ccc(S(=O)Cc2ccc(C(=O)NC3CC3)o2)cc1 (stereo not given) | > 47.9
COc1cccc(NC(=O)NC2CCCCCCC2)c1 | 5.2 (≈ 18.8 µM)
Cc1ccc(C(=O)N2c3ccccc3CC2C)o1 (stereo not given) | 31.6 (≈ 131 µM)
Cc1cc(SCC#N)nc2ccccc12 | 14.6 (≈ 68.1 µM)
COc1ccc(C(=O)N/N=C/c2cccnc2)cc1 | > 38.3
CCN(C(=S)Nc1cccnc1)c1cccc2ccccc12 | 39.9 (≈ 130 µM)
COc1cc(NC(=O)CCN2CC(C)OC(C)C2)cc(OC)c1 (stereo not given) | 34.3 (≈ 106 µM)
COc1ccc(C(=O)Nc2cc([N+](=O)[O-])ccc2N2CCCC2)cc1 | 2.6 (≈ 7.62 µM)
CC(C)c1ccc(C(=O)NN2CCOCC2)cc1 | > 37.2
CC(NC(=O)COC(=O)c1ccccc1F)C1CC2CCC1C2 (stereo not given) | > 47.9
CC(=O)Nc1nc(-c2cc([N+](=O)[O-])cs2)cs1 | 0.7 (≈ 2.6 µM)
Cc1ccc(Nc2nc(NCCO)c3ccccc3n2)cc1C.Cl | 30.9
Cc1cccc(Oc2c([N+](=O)[O-])c(=O)n(C)c3ccccc23)c1 | 6.6 (≈ 21.3 µM)
COc1cccc(NC(=O)Nc2nc(SC)ns2)c1 | 1.3 (≈ 4.39 µM)

— PubChem BioAssay AID1996
